ChEMBL document CHEMBL6153025, “Multidrug-resistant bacteria quorum-sensing inhibitors: A particular focus on Pseudomonasaeruginosa” (Eur J Med Chem, 2025)
pIC50: −log10 of the molar value. In brackets after ≈: the same amount, converted by molar mass.

Assays:
[1] = Inhibition of quorum sensing system in Pseudomonas aeruginosa PAO1-rhlA-gfp assessed as inhibition of rhlA expression at 50 ug/ml incubated for 8 hrs by microplate reader based analysis relative to control; details: dose 50.0 µg/ml
Pseudomonas aeruginosa [2] = assay: Antivirulence activity against Pseudomonas aeruginosa PAO1 assessed as reduction in pyocyanin production at 20 ug/ml relative to control; type: functional; parameters: scale not given: the % may be the effect or the level left; details: dose 20 µg/ml
Pseudomonas aeruginosa [3] = assay: Antivirulence activity in Pseudomonas aeruginosa PAO1 assessed as reduction in elastase production at 10 uM incubated for 24 hrs by elastin-congo red dye based absorbance assay relative to control; type: functional; parameters: scale not given: the % may be the effect or the level left
Pseudomonas aeruginosa [4] = assay: Antibiofilm activity against Pseudomonas aeruginosa PAO1 assessed as inhibition of biofilm formation at 16 microg/ml incubated for 20 hrs by crystal violet staining based analysis; type: functional; parameters: scale not given: the % may be the effect or the level left; details: dose 16 µg/ml
[5] = Inhibition of quorum sensing system in Pseudomonas aeruginosa PAO1 expressing lasI-gfp assessed as inhibition of lasI expression at 50 ug/ml incubated for 8 hrs under shaking condition by microplate reader based analysis relative to control; details: dose 50.0 µg/ml
Pseudomonas aeruginosa [6] = assay: Antibacterial activity against Pseudomonas aeruginosa PAO1 assessed as reduction in bacterial growth; type: functional
Pseudomonas aeruginosa [7] = assay: Antivirulence activity against Pseudomonas aeruginosa PAO1 assessed as inhibition of pyocyanin production at 16 ug/ml relative to control; type: functional; parameters: scale not given: the % may be the effect or the level left; details: dose 16 µg/ml
Pseudomonas aeruginosa [8] = assay: Antimicrobial activity against Pseudomonas aeruginosa PAO1 assessed as inhibition of bacterial growth measured for 18 hrs by CLSI-based broth microdilution method; type: functional
Pseudomonas aeruginosa [9] = assay: Antivirulence activity against Pseudomonas aeruginosa PAO1 assessed as inhibition of rhamnolipid production at 16 ug/ml relative to control; type: functional; parameters: scale not given: the % may be the effect or the level left; details: dose 16 µg/ml
Pseudomonas aeruginosa [10] = assay: Antibacterial activity against Pseudomonas aeruginosa ATCC 15442 assessed as reduction in bacterial cell growth incubated for 18 hrs by two fold serial microdilution method; type: functional
Pseudomonas aeruginosa [11] = assay: Antibiofilm activity against Pseudomonas aeruginosa ATCC 15442 assessed as inhibition of biofilm formation at 16 ug/ml relative to control; type: functional; parameters: scale not given: the % may be the effect or the level left; details: dose 16 µg/ml
Pseudomonas aeruginosa [12] = assay: Downregulation of rhlI mRNA expression in Pseudomonas aeruginosa PAO1 at 160 ug/ml incubated for 6 hrs by RT-qPCR analysis relative to control; type: functional; details: dose 160 µg/ml
Pseudomonas aeruginosa [13] = assay: Downregulation of lasB mRNA expression in Pseudomonas aeruginosa PAO1 at 160 ug/ml incubated for 6 hrs by RT-qPCR analysis relative to control; type: functional; details: dose 160 µg/ml
Pseudomonas aeruginosa [14] = assay: Downregulation of lasR mRNA expression in Pseudomonas aeruginosa PAO1 at 16 ug/ml relative to control; type: functional; details: dose 16 µg/ml
Pseudomonas aeruginosa [15] = assay: Downregulation of lasI mRNA expression in Pseudomonas aeruginosa PAO1 at 16 ug/ml relative to control; type: functional; details: dose 16 µg/ml
Pseudomonas aeruginosa [16] = assay: Antibiofilm activity against Pseudomonas aeruginosa PAO1 assessed as inhibition of biofilm formation incubated for 24 hrs by crystal violet staining based assay; type: functional, organism-based; details: PAO1, 24 h
Pseudomonas aeruginosa [17] = assay: Downregulation of rhlR mRNA expression in Pseudomonas aeruginosa PAO1 at 160 ug/ml incubated for 6 hrs by RT-qPCR analysis relative to control; type: functional; details: dose 160 µg/ml
Pseudomonas aeruginosa [18] = assay: Downregulation of lasA mRNA expression in Pseudomonas aeruginosa PAO1 at 160 ug/ml incubated for 6 hrs by RT-qPCR analysis relative to control; type: functional; details: dose 160 µg/ml
Pseudomonas aeruginosa [19] = assay: Antibacterial activity against Pseudomonas aeruginosa PAO1 assessed as bacterial growth inhibition after 24 hrs by liquid microdilution method; type: functional
Pseudomonas aeruginosa [20] = assay: Antibiofilm activity against Pseudomonas aeruginosa ATCC 27853 assessed as reduction in biofilm biomass at 16 ug/ml relative to control; type: functional; parameters: scale not given: the % may be the effect or the level left; details: dose 16 µg/ml
Pseudomonas aeruginosa [21] = assay: Antibacterial activity against Pseudomonas aeruginosa PAO1 assessed as reduction in bacterial growth by broth microdilution method; type: functional, organism-based
Pseudomonas aeruginosa [22] = assay: Downregulation of rhlA mRNA level in Pseudomonas aeruginosa PAO1 at 10 uM by RT-qPCR analysis; type: functional
[23] = Inhibition of quorum sensing system in Pseudomonas aeruginosa PAO1 expressing lasB-gfp assessed as inhibition of lasB expression at 50 ug/ml incubated for 8 hrs by microplate reader based analysis relative to control; details: dose 50.0 µg/ml
Pseudomonas aeruginosa [24] = assay: Antibiofilm activity against Pseudomonas aeruginosa ATCC 27853 assessed as reduction in biofilm formation at 10 uM relative to control; type: functional; parameters: scale not given: the % may be the effect or the level left
Pseudomonas aeruginosa [25] = assay: Antivirulence activity in Pseudomonas aeruginosa PAO1 assessed as reduction in pyocyanin production at 10 uM incubated for 24 hrs by absorbance based analysis relative to control; type: functional; parameters: scale not given: the % may be the effect or the level left
Pseudomonas aeruginosa [26] = assay: Anti-virulence activity in Pseudomonas aeruginosa PAO1 assessed as reduction in pyoverdine production at 160 ug/ml by absorbance based analysis relative to control; type: functional; parameters: scale not given: the % may be the effect or the level left; details: dose 160 µg/ml
Pseudomonas aeruginosa [27] = assay: Antibacterial activity against Pseudomonas aeruginosa ATCC 27853 assessed as bacterial growth inhibition by agar diffusion assay; type: functional
Pseudomonas aeruginosa [28] = assay: Antibacterial activity against Pseudomonas aeruginosa ATCC 27853; type: functional, organism-based
[29] = Inhibition of quorum sensing system in Pseudomonas aeruginosa PAO1 expressing lasB-gfp at 16 uM relative to control
Pseudomonas aeruginosa [30] = assay: Anti-virulence effect in Pseudomonas aeruginosa PAO1 assessed as inhibition of rhamnolipid production at 10 uM relative to control; type: functional; parameters: scale not given: the % may be the effect or the level left
Pseudomonas aeruginosa [31] = assay: Antibiofilm activity against Pseudomonas aeruginosa ATCC 27853 assessed as inhibition of biofilm formation at 8 microg/ml incubated for 24 hrs by crystal violet staining based analysis relative to control; type: functional; parameters: scale not given: the % may be the effect or the level left; details: dose 8 µg/ml
Pseudomonas aeruginosa [32] = assay: Antibiofilm activity against Pseudomonas aeruginosa PA14 assessed as reduction in biofilm formation; type: functional
Pseudomonas aeruginosa [33] = assay: Antimicrobial activity against Pseudomonas aeruginosa assessed as reduction in microbial growth; type: functional, organism-based
Pseudomonas aeruginosa [34] = assay: Antibiofilm activity against Pseudomonas aeruginosa assessed as reduction in biofilm formation incubated for 24 hrs relative to control; type: functional; parameters: scale not given: the % may be the effect or the level left
Pseudomonas aeruginosa [35] = assay: Antibiofilm activity against Pseudomonas aeruginosa PAO1 assessed as reduction in biofilm formation at 16 ug/ml incubated for 2 to 4 hrs by crystal violet staining based analysis relative to control; type: functional; parameters: scale not given: the % may be the effect or the level left; details: dose 16 µg/ml; time 2-4 hrs

Cc1ccc(CCC(=O)NC2CCOC2=O)cc1 (stereo not drawn)
inhibition [1]: 91% | Activity (Pseudomonas aeruginosa [2]): 66% | Activity (Pseudomonas aeruginosa [3]): 52% | Activity (Pseudomonas aeruginosa [4]): 52% | inhibition [5]: 82% | MIC (Pseudomonas aeruginosa [6]): 10 µM (≈ 2.47 µg/mL)

COc1ccc(-c2cc(=O)c3c(O)cc(O)cc3o2)cc1 [ACACETIN]
Activity (Pseudomonas aeruginosa [7]): 53% | MIC (Pseudomonas aeruginosa [8]): 0.48 µg/mL (≈ 1.69 µM) | Activity (Pseudomonas aeruginosa [9]): 67%

Cc1nc2cccc(Br)c2c(=O)n1/N=C/c1ccc(O)cc1
MIC (Pseudomonas aeruginosa [10]): > 50 µM | Activity (Pseudomonas aeruginosa [7]): 99.5% | Activity (Pseudomonas aeruginosa [11]): 25%

O=C/C=C/c1ccccc1
Activity (Pseudomonas aeruginosa [12]): 70% | Activity (Pseudomonas aeruginosa [13]): 28% | Activity (Pseudomonas aeruginosa [14]): 98.56% | Activity (Pseudomonas aeruginosa [15]): 86% | pIC50 (Pseudomonas aeruginosa [16]): 5.64 | Activity (Pseudomonas aeruginosa [17]): 99% | Activity (Pseudomonas aeruginosa [18]): 65% | MIC (Pseudomonas aeruginosa [19]): 11.3 µM (≈ 1.5 µg/mL)

O=C(/C=C/c1ccc(O)c(O)c1)OCCc1ccc(Cl)cc1
Activity (Pseudomonas aeruginosa [20]): 30.41%

O=C(CNc1ccc(C(=O)/C=C/c2ccc(-c3ccccc3)cc2)cc1)N[C@@H]1CCOC1=O
MIC (Pseudomonas aeruginosa [21]): 5 µM (≈ 2.2 µg/mL)

CC(C)c1ccc(/C=C/C(=O)c2ccc(NCC(=O)N[C@@H]3CCOC3=O)cc2)cc1
MIC (Pseudomonas aeruginosa [21]): 5 µM (≈ 2.03 µg/mL)

CC1=C(/C=C/C(C)=C/C=C/C(C)=C/C=C/C=C(C)/C=C/C=C(C)/C=C/C2=C(C)C[C@@H](O)CC2(C)C)C(C)(C)C[C@H](O)C1 [ZEAXANTHIN]
Activity (Pseudomonas aeruginosa [22]): 43% | inhibition [23]: 67.8%

O=C(COc1ccc(C(=O)/C=C/c2ccccc2Cl)cc1)N[C@H]1CCOC1=O
MIC (Pseudomonas aeruginosa [21]): 5 µM (≈ 2 µg/mL)

C=CCSSc1nc2ccccc2c(=O)[nH]1
Activity (Pseudomonas aeruginosa [24]): 46%

CCCCCCn1ccnc1
Activity (Pseudomonas aeruginosa [25]): 97% | Activity (Pseudomonas aeruginosa [26]): 60%

O=C(CSc1nc2ccccc2s1)c1ccc2c(c1)OCCO2
MIC (Pseudomonas aeruginosa [27]): > 512 µg/mL | IC50 (Pseudomonas aeruginosa [28]): 115 µg/mL (≈ 335 µM)

CCCCC/C=C\C/C=C\CCCCCCCC(=O)O
inhibition [29]: 41%

c1cc2c(cc1[C@H]1OC[C@H]3[C@@H]1CO[C@@H]3c1ccc3c(c1)OCO3)OCO2 [SESAMIN]
Activity (Pseudomonas aeruginosa [30]): 51.31% | Activity (Pseudomonas aeruginosa [7]): 87% | Activity (Pseudomonas aeruginosa [31]): 92% | MIC (Pseudomonas aeruginosa [32]): 75 µg/mL (≈ 212 µM)

CCCCCCCn1ccnc1
pIC50 (Pseudomonas aeruginosa [16]): 5.48

COP(=O)(NCCCCOc1cc(O)c2c(=O)cc(-c3ccccc3)oc2c1)OC
pIC50 (Pseudomonas aeruginosa [33]): 4.00

O=C(CN[C@H]1CCOC1=O)Nc1ccc(C/C=C/c2ccc(Cl)c(Cl)c2)cc1
MIC (Pseudomonas aeruginosa [21]): 5 µM (≈ 2.1 µg/mL)

O=C1c2ccc(NS(=O)(=O)c3ccc(Cl)cc3)cc2OC2C=C(O)C=C(O)C12 (stereo not drawn)
pIC50 (Pseudomonas aeruginosa [33]): 4.00 | Activity (Pseudomonas aeruginosa [34]): 50%

C=CCc1ccc(O)c(OC)c1 [EUGENOL]
Activity (Pseudomonas aeruginosa [35]): 50% | Activity (Pseudomonas aeruginosa [14]): 51% | Activity (Pseudomonas aeruginosa [15]): 52% | Activity (Pseudomonas aeruginosa [17]): 65%

c1cc2c(cc1O[C@H]1OC[C@H]3[C@@H]1CO[C@@H]3c1ccc3c(c1)OCO3)OCO2 [SESAMOLIN]
Activity (Pseudomonas aeruginosa [30]): 42% | Activity (Pseudomonas aeruginosa [7]): 79% | Activity (Pseudomonas aeruginosa [18]): 53.95% | Activity (Pseudomonas aeruginosa [31]): 97% | MIC (Pseudomonas aeruginosa [32]): 150 µg/mL (≈ 405 µM)

O=C(O)/C=C/c1ccc(O)c(O)c1 [CAFFEIC ACID]
Activity (Pseudomonas aeruginosa [20]): 33%

O=C(O)CCc1ccc(O)c(O)c1 [DIHYDROCAFFEIC ACID]
Activity (Pseudomonas aeruginosa [20]): 19.82%

O=c1c(-c2ccc(O)cc2)coc2cc(O)cc(O)c12 [GENISTEIN]
MIC (Pseudomonas aeruginosa [8]): 0.48 µg/mL (≈ 1.78 µM)
